According to publication PMC7529893, “Structural basis for substrate recognition and chemical inhibition of oncogenic MAGE ubiquitin ligases” (Nature Communications, 2020):

Biological target: T1, MAGE-A11:PCF11 interaction (GST-MAGE-A11 and FAM-PCF11_4) (Homo sapiens, UniProt P43364)
T1 construct: GST-MAGE-A11 MHD (human MAGE-A11 MHD amino acid 218-429); made in house; host or cells: E. coli BL21(DE3)
T1 sequence (P43364 218-429): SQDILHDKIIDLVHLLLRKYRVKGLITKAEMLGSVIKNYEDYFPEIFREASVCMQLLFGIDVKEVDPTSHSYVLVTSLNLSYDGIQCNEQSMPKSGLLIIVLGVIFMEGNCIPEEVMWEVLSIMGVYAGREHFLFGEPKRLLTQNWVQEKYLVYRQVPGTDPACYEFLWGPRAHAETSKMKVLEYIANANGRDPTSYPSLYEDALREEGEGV
Assay: TR-FRET primary / single point screen at 15 µM
Assay type: binding
Conditions: single point TR-FRET screening of 797 quinoline compounds against MAGE-A11:PCF11
How it was run: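 TR-FRET 520/490 nm emission ratio was read after 90 min at room temperature. Wells held 5 nM GST-MAGE-A11, 5 nM Tb-anti-GST, 200 nM FAM-PCF11_4 and 15 µM compound in Tris pH 7.5 buffer with MgCl2, BSA and DTT. %Inhibition was scaled to DMSO and minus-MAGE-A11 controls.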

Going from `Cc1ccc2ncc(S(=O)(=O)c3ccccc3)c(N3CCN(c4ccccc4)CC3)c2c1` [SJ000083973] to `COc1ccc(N2CCN(c3c(S(=O)(=O)c4ccccc4)cnc4ccc(C)cc34)CC2)cc1` [SJ000083981], the “percent inhibition (TR-FRET)” value falls from -29.7042 to -37.966.

First: Clc1ccc2c(NCCCCN(Cc3ccccc3)Cc3csc4ccccc34)ccnc2c1 [SJ000520446]
Second: Oc1ccccc1CN(CCCCNc1ccnc2cc(Cl)ccc12)Cc1ccccc1 [SJ000312697]
The “percent inhibition (TR-FRET)” value of the first is higher: 33.9765 for the first, 24.8344 for the second.

Going from `CCC(C)CN1CCC(Nc2ccnc3cc(Cl)ccc23)CC1` (centres unmarked) [SJ000523105] to `Clc1ccc2c(NC3CCN(Cc4ccc(Br)o4)CC3)ccnc2c1` [SJ000357512], the “percent inhibition (TR-FRET)” value falls from 11.185 to -4.381.

First: CCc1ccc2ncc(S(=O)(=O)c3ccc(OC)cc3)c(N3CCN(C)CC3)c2c1 [SJ000083954]
Second: CCc1ccc2ncc(S(=O)(=O)c3ccc(C)cc3)c(N3CCN(CC)CC3)c2c1 [SJ000083962]
The “percent inhibition (TR-FRET)” value of the first is lower: -5.969 for the first, 2.377 for the second.

First: COc1ccc2nc3cc(Cl)ccc3c(NCCCNCc3ccccn3)c2c1 [SJ000523024]
Second: COc1ccc2nc3cc(Cl)ccc3c(NCCCNCc3ccc(C)o3)c2c1 [SJ000361089]
The “percent inhibition (TR-FRET)” value of the first is lower: -255.258 for the first, -229.025 for the second.

Compared with `COc1ccc(F)cc1CN(CCCCNc1ccnc2cc(Cl)ccc12)Cc1ccccc1` [SJ000357496], `COc1ccc(CN(CCCCNc2ccnc3cc(Cl)ccc23)Cc2ccccc2)cc1F` [SJ000520438] is lower in “percent inhibition (TR-FRET)” value: 20.7772 for the first, 13.1455 for the second.

Compared with `COc1ccc2nc3cc(Cl)ccc3c(NCCCNCc3c(F)cccc3C(F)(F)F)c2c1` [SJ000520999], `COc1ccc2nc3cc(Cl)ccc3c(NCCCNCc3ccc4[nH]ccc4c3)c2c1` [SJ000520914] is lower in “percent inhibition (TR-FRET)” value: -116.734 for the first, -184.229 for the second.

Compared with `Clc1ccc2c(NCCCCN(Cc3ccccc3)Cc3ccco3)ccnc2c1` [SJ000312681], `Fc1ccccc1CN(CCCCNc1ccnc2cc(Cl)ccc12)Cc1ccccc1` [SJ000361198] is higher in “percent inhibition (TR-FRET)” value: 12.0487 for the first, 20.7772 for the second.

First: CCOc1ccc2ncc(S(=O)(=O)c3ccc(C)c(C)c3)c(N3CCN(CC)CC3)c2c1 [SJ000247355]
Second: CCOc1ccc2ncc(S(=O)(=O)c3ccc(C)c(C)c3)c(N3CCN(C)CC3)c2c1 [SJ000247354]
The “percent inhibition (TR-FRET)” value of the first is higher: -13.3902 for the first, -14.0527 for the second.

Compared with `O=S(=O)(c1ccccc1)c1cnc2ccc(F)cc2c1N1CCN(Cc2ccccc2)CC1` [SJ000247257], `O=S(=O)(c1ccccc1)c1cnc2ccc(Cl)cc2c1N1CCN(c2ccccc2F)CC1` [SJ000315176] is higher in “percent inhibition (TR-FRET)” value: -62.2806 for the first, -5.441 for the second.

First: CCCN(CCCCNc1ccnc2cc(Cl)ccc12)Cc1cc(F)ccc1OC [SJ000311202]
Second: CCCN(CCCCNc1ccnc2cc(Cl)ccc12)Cc1sccc1C [SJ000311199]
The “percent inhibition (TR-FRET)” value of the first is lower: 5.3962 for the first, 6.494 for the second.

First: Clc1ccc2c(NCCCCN(Cc3ccccc3)Cc3cccc4ccccc34)ccnc2c1 [SJ000361204]
Second: Clc1ccc2c(NCCCCN(CCCc3ccccc3)Cc3ccccc3)ccnc2c1 [SJ000522729]
The “percent inhibition (TR-FRET)” value of the first is lower: 26.4906 for the first, 27.8155 for the second.

Compared with `Cc1ccc(C)c(CN(CCCCNc2ccnc3cc(Cl)ccc23)Cc2ccccc2)c1` [SJ000361209], `CC(C)(C)CCN(CCCCNc1ccnc2cc(Cl)ccc12)Cc1ccccc1` [SJ000357537] is higher in “percent inhibition (TR-FRET)” value: 32.6515 for the first, 34.5391 for the second.

Going from `O=C(O)c1ccccc1CN1CCC(Nc2ccnc3cc(Cl)ccc23)CC1` [SJ000523098] to `O=[N+]([O-])c1ccccc1CN1CCC(Nc2ccnc3cc(Cl)ccc23)CC1` [SJ000523094], the “percent inhibition (TR-FRET)” value rises from -2.194 to -2.0257.

Compared with `COc1ccccc1N1CCN(c2c(S(=O)(=O)c3ccc(C)cc3)cnc3ccccc23)CC1` [SJ000117065], `Cc1ccc(S(=O)(=O)c2cnc3ccccc3c2N2CCN(c3ccc(F)cc3)CC2)cc1` [SJ000117057] is lower in “percent inhibition (TR-FRET)” value: -8.687 for the first, -20.6111 for the second.

First: CCCN(CCCNc1c2ccc(Cl)cc2nc2ccc(OC)cc12)Cc1ccc(-c2cccc(Cl)c2)o1 [SJ000523020]
Second: CCCN(CCCNc1c2ccc(Cl)cc2nc2ccc(OC)cc12)Cc1ccc[nH]1 [SJ000520923]
The “percent inhibition (TR-FRET)” value of the first is higher: -169.736 for the first, -271.048 for the second.

Going from `CCOC(=O)c1cnc2ccc(C(=O)O)cc2c1N1CCN(CCO)CC1` [SJ000280902] to `CCN1CCN(c2c(S(=O)(=O)c3ccc(Cl)cc3)cnc3ccc(C)cc23)CC1` [SJ000083967], the “percent inhibition (TR-FRET)” value falls from -0.5958 to -3.0982.

First: Cc1cccc(CN2CCC(Nc3ccnc4cc(Cl)ccc34)CC2)c1 [SJ000523101]
Second: Fc1ccc(CN2CCC(Nc3ccnc4cc(Cl)ccc34)CC2)cc1 [SJ000523093]
The “percent inhibition (TR-FRET)” value of the first is higher: 18.5377 for the first, 10.6575 for the second.

Compared with `Clc1ccc2c(NCCCCN(Cc3ccccc3)CC3CC3)ccnc2c1` [SJ000357485], `COc1ccc2nc3cc(Cl)ccc3c(NCCCNCc3ccc4ccccc4c3)c2c1` [SJ000523038] is lower in “percent inhibition (TR-FRET)” value: 18.3422 for the first, -109.452 for the second.

Compared with `COc1ccc2ncc(S(=O)(=O)c3ccc(C)cc3)c(N3CCN(c4ccccc4F)CC3)c2c1` [SJ000117076], `COc1ccc2ncc(S(=O)(=O)c3ccc(C)cc3)c(N3CCN(Cc4ccccc4)CC3)c2c1` [SJ000117085] is lower in “percent inhibition (TR-FRET)” value: 6.02 for the first, -82.2209 for the second.

Compared with `COc1ccc2ncc(S(=O)(=O)c3ccccc3)c(N3CCN(c4cccc(C)c4C)CC3)c2c1` [SJ000117082], `CN(C)c1cc(NC(=O)CNC(C)(C)CC(C)(C)C)c2ccccc2n1` [SJ000111678] is higher in “percent inhibition (TR-FRET)” value: -241.81 for the first, 10.6249 for the second.

Same assay, conditions: single point TR-FRET screening of quinoline compounds against MAGE-A11:PCF11; 15 µM

Going from `FC(F)(F)Oc1ccccc1CN(CCCNc1ccnc2cc(Cl)ccc12)Cc1ccccc1` [SJ000357599] to `COc1ccc(F)cc1CN(CCCNc1ccnc2cc(Cl)ccc12)Cc1ccccc1` [SJ000357495], the “percent inhibition (TR-FRET)” value falls from 19.7634 to 6.683.

Going from `CCCN(CCCNc1ccnc2cc(C(F)(F)F)ccc12)Cc1cc(Br)cs1` [SJ000520478] to `CCCN(CCCNc1ccnc2cc(C(F)(F)F)ccc12)Cc1cnn(C)c1` [SJ000575182], the “percent inhibition (TR-FRET)” value rises from -9.243 to 15.6779.

First: FC(F)(F)c1ccc2c(NCCCNCC3CCCCC3)ccnc2c1 [SJ000361110]
Second: CCCN(CCCNc1ccnc2cc(Cl)ccc12)CC1CCCCC1 [SJ000522751]
The “percent inhibition (TR-FRET)” value of the first is higher: 27.1172 for the first, 15.626 for the second.

First: CCCCCCN(CCCNc1ccnc2cc(Cl)ccc12)Cc1ccccc1 [SJ000361189]
Second: CCC(C)CN(CCCNc1ccnc2cc(Cl)ccc12)Cc1ccccc1 (centres unmarked) [SJ000361186]
The “percent inhibition (TR-FRET)” value of the first is lower: -40.7502 for the first, 29.5992 for the second.

Compared with `CCCN(CCCNc1c2ccc(Cl)cc2nc2ccc(OC)cc12)CC(C)C` [SJ000575150], `CCCN(CCCCCC(=O)OC)CCCNc1c2ccc(Cl)cc2nc2ccc(OC)cc12` [SJ000575151] is lower in “percent inhibition (TR-FRET)” value: -21.3723 for the first, -37.4059 for the second.

Going from `CN(C)CCCNc1c2c(nc3ccccc13)CCC2` [SJ000029259] to `CCCN(CCCNc1c2ccc(Cl)cc2nc2ccc(OC)cc12)Cc1csc2ccccc12` [SJ000522970], the “percent inhibition (TR-FRET)” value falls from 24.0531 to -51.6891.

First: CCCN(CCCNc1ccnc2cc(Cl)ccc12)CCC(C)c1ccccc1 (centres unmarked) [SJ000357573]
Second: CCCN(CCCNc1ccnc2cc(Cl)ccc12)CCC(C)(C)C [SJ000357570]
The “percent inhibition (TR-FRET)” value of the first is higher: 24.9781 for the first, 12.1149 for the second.

Going from `COc1ccc2nc3cc(Cl)ccc3c(NCCCNCc3c(Cl)ccc(Cl)c3Cl)c2c1` [SJ000522960] to `CCCN(CCCNc1c2ccc(Cl)cc2nc2ccc(OC)cc12)Cc1ccc(Cl)cc1Cl` [SJ000520956], the “percent inhibition (TR-FRET)” value rises from -81.4922 to 9.598.

Going from `CCCN(CCCNc1ccnc2cc(Cl)ccc12)Cc1cc(OC(F)(F)F)ccc1OC` [SJ000523011] to `CCCN(CCCNc1ccnc2cc(C(F)(F)F)ccc12)Cc1cc(OC(F)(F)F)ccc1OC` [SJ000520485], the “percent inhibition (TR-FRET)” value falls from 15.666 to 5.6.

First: CCCN(CCCNc1ccnc2cc(Cl)ccc12)Cc1c[nH]c(C)n1 [SJ000522990]
Second: CCCN(CCCNc1ccnc2cc(Cl)ccc12)Cc1nccn1C [SJ000523002]
The “percent inhibition (TR-FRET)” value of the first is lower: 4.828 for the first, 6.351 for the second.

Compared with `COc1ccc(F)c(CN(CCCNc2ccnc3cc(Cl)ccc23)Cc2ccccc2)c1` [SJ000520445], `CCCN(CCCNc1ccnc2cc(Cl)ccc12)Cc1cc(F)ccc1OC` [SJ000357494] is higher in “percent inhibition (TR-FRET)” value: 4.762 for the first, 17.0835 for the second.

Going from `Clc1ccc2c(NCCCNCc3cncc(Br)c3)ccnc2c1` [SJ000521037] to `CCCN(CCCNc1ccnc2cc(Cl)ccc12)Cc1ccc(Br)o1` [SJ000311195], the “percent inhibition (TR-FRET)” value rises from 7.014 to 14.4758.

Compared with `COC(=O)CCCCCNCCCNc1ccnc2cc(Cl)ccc12` [SJ000521021], `CCCN(CCCNc1ccnc2cc(C(F)(F)F)ccc12)Cc1ccccc1O` [SJ000361257] is lower in “percent inhibition (TR-FRET)” value: 39.1213 for the first, 26.5044 for the second.

Going from `CCOC(=O)c1cnc2c(C(F)(F)F)cccc2c1NCCCN1CCOCC1` [SJ000131358] to `CCCN(CCCNc1ccnc2cc(C(F)(F)F)ccc12)Cc1csc2ccccc12` [SJ000520483], the “percent inhibition (TR-FRET)” value rises from 10.0613 to 19.4469.

`CCCN(CCCNc1c2ccc(Cl)cc2nc2ccc(OC)cc12)Cc1ccc([N+](=O)[O-])cc1` [SJ000520949] was tested, and the “percent inhibition (TR-FRET)” value was -9.039.
